{
  "source": "ChEMBL document CHEMBL2157909",
  "about": "“Design, synthesis, spectral and biological evaluation of novel 1-allyl substituted 2,6-diphenylpiperidin-4-ones and its derivatives of oximes/oxime ethers” (2012)",
  "key": {"Pseudomonas": {"system": "Pseudomonas", "assay": "Antibacterial activity against Pseudomonas ATCC 27853 after 24 hrs by two fold serial dilution method", "type": "functional", "conditions": "ATCC 27853, 24 h"}, "Aspergillus flavus": {"system": "Aspergillus flavus", "assay": "Antifungal activity against Aspergillus flavus ATCC 525 after 72 to 96 hrs by two fold serial dilution method", "type": "functional"}, "Aspergillus niger": {"system": "Aspergillus niger", "assay": "Antifungal activity against Aspergillus niger ATCC 635 after 72 to 96 hrs by two fold serial dilution method", "type": "functional"}, "Fusarium oxysporum": {"system": "Fusarium oxysporum", "assay": "Antifungal activity against Fusarium oxysporum ATCC 48112 after 72 to 96 hrs by two fold serial dilution method", "type": "functional"}, "Staphylococcus aureus": {"system": "Staphylococcus aureus", "assay": "Antibacterial activity against Staphylococcus aureus ATCC 25930 after 24 hrs by two fold serial dilution method", "type": "functional", "conditions": "ATCC 25930, 24 h"}, "Bacillus subtilis": {"system": "Bacillus subtilis", "assay": "Antibacterial activity against Bacillus subtilis ATCC 530 after 24 hrs by two fold serial dilution method", "type": "functional", "conditions": "ATCC 530, 24 h"}, "Rhizopus": {"system": "Rhizopus", "assay": "Antifungal activity against Rhizopus sp. ATCC 2842 after 72 to 96 hrs by two fold serial dilution method", "type": "functional"}, "[1]": {"assay": "Ratio of MIC for Bacillus subtilis ATCC 530 to MIC for Salmonella typhi ATCC 25021", "type": "functional"}, "Escherichia coli": {"system": "Escherichia coli", "assay": "Antibacterial activity against Escherichia coli ATCC 26032 after 24 hrs by two fold serial dilution method", "type": "functional", "conditions": "ATCC 26032, 24 h"}, "Penicillium chrysogenum": {"system": "Penicillium chrysogenum", "assay": "Antifungal activity against Penicillium chrysogenum ATCC 28089 after 72 to 96 hrs by two fold serial dilution method", "type": "functional"}, "Salmonella typhi": {"system": "Salmonella typhi", "assay": "Antibacterial activity against Salmonella typhi ATCC 25021 after 24 hrs by two fold serial dilution method", "type": "functional, Salmonella enterica subsp. enterica serovar Typhi", "conditions": "Salmonella enterica, ATCC 25021, 24 h"}, "[2]": {"assay": "Ratio of MIC for Pseudomonas ATCC 27853 to MIC for Salmonella typhi ATCC 25021", "type": "functional"}},
  "data": [
    {"smiles": "C=CCN1[C@H](c2ccc(C)cc2)CC(=O)[C@@H](C)[C@@H]1c1ccc(C)cc1", "note": "(relative stereo)", "values": [
      {"measurement": "MIC", "setting": "Pseudomonas", "value": 50, "unit": "µg/mL"},
      {"measurement": "MIC", "setting": "Aspergillus flavus", "value": 50, "unit": "µg/mL"},
      {"measurement": "MIC", "setting": "Aspergillus niger", "value": 50, "unit": "µg/mL"},
      {"measurement": "MIC", "setting": "Fusarium oxysporum", "value": 25, "unit": "µg/mL"},
      {"measurement": "MIC", "setting": "Staphylococcus aureus", "value": 50, "unit": "µg/mL"},
      {"measurement": "MIC", "setting": "Bacillus subtilis", "value": 100, "unit": "µg/mL"},
      {"measurement": "MIC", "setting": "Rhizopus", "value": 6.25, "unit": "µg/mL"},
      {"measurement": "Ratio", "setting": "[1]", "value": 3},
      {"measurement": "MIC", "setting": "Escherichia coli", "value": 25, "unit": "µg/mL"},
      {"measurement": "MIC", "setting": "Penicillium chrysogenum", "value": 25, "unit": "µg/mL"},
      {"measurement": "MIC", "setting": "Salmonella typhi", "value": 12.5, "unit": "µg/mL"},
      {"measurement": "Ratio", "setting": "[2]", "value": 2}
    ]}
  ]
}
